Patent US20220226313A1, “COMBINATION THERAPIES THAT INCLUDE AN AGENT THAT PROMOTES GLUCOSE OXIDATION AND AN INHIBITOR OF PYRUVATE DEHYDROGENASE KINASE” (IMBRIA PHARMACEUTICALS, INC., priority 2019, published 2022)
Where “and” joins values, the source holds several entries; their conditions need not be identical. Identical values can stand only once.

Legend:
[1] = recrystallization to monohydrate of CV-8972, water content by KF; assay type: physicochemical; settings: recrystallized monohydrate of CV-8972, MeOH:MEK with water; theoretical 3.32%
Text: The product was converted to the desired polymorph by recrystallization. The percentage of water and the ratio of methanol:methyl ethyl ketone (MEK) were varied in different batches using 2.5 g of product.
In batch MBA 25, 5% water w/r/t total volume of solvent (23 volumes) containing 30% methano1:70% MEK was used for precipitation. The yield was 67% of monohydrate of CV-8972.
In batch MBA 26, 1.33% water w/r/t total volume of solvent (30 volumes) containing 20% methano1:80% MEK was used for precipitation. […] Water content was determined by KF to be 4.0%.
In batch MBA 27, 3% water w/r/t total volume of solvent (32 volumes) containing 22% methano1:78% MEK was used for precipitation. The yield was 87.22% of monohydrate of CV-8972.
In other batches, the ratio and total volume of solvent were held constant at 20% methano1:80% MEK and 30 volumes in batches using 2.5 g of product, and only the percentage of water was varied.
In batch MBA 29, 1.0 equivalent of water was added. Material was isolated and dried under vacuum at 40° C. for 24 hours. Water content was determined by KF to be 0.89%, showing that the monohydrate form was not forming stoichiometrically.
In batch MBA 30, 3% water was added. Material was isolated and dried under vacuum at 40° C. for 24 hours.
In batch MBA 31, 5% water was added. Material was isolated and dried under vacuum at 40° C. for 24 hours. Water content was determined by KF to be 3.30%, showing that monohydrate is forming with addition of excess water.

[2] = system: isolated hearts after ischemia-reperfusion; experiment: ischemia-reperfusion (IR), coronary flow; assay type: in vivo, mice; settings: ratio of flow at 170 minutes to flow at 20 minutes
Method: FIG. 38 is a schematic of the ischemia-reperfusion (IR) method used to analyze the effects of selected compositions on coronary flow, cardiac function, and infarct size. […] At 20 minutes, ischemia was induced, and coronary flow was analyzed. At 50 minutes, reperfusion was initiated to restore blood flow. At 170 minutes, coronary flow and cardiac function was analyzed, and then the hearts were preserved, sectioned, and infarct size was measured by triphenyltetrazolium chloride (TTC) staining. FIG. 39 is a graph of coronary flow of after IR.

[3] = system: isolated hearts after ischemia-reperfusion; experiment: ischemia-reperfusion (IR), infarct size by TTC staining; assay type: in vivo, mice; settings: composite image data, mean of the group's hearts
Method: FIG. 38 is a schematic of the ischemia-reperfusion (IR) method used to analyze the effects of selected compositions on coronary flow, cardiac function, and infarct size. […] At 20 minutes, ischemia was induced, and coronary flow was analyzed. At 50 minutes, reperfusion was initiated to restore blood flow. At 170 minutes, coronary flow and cardiac function was analyzed, and then the hearts were preserved, sectioned, and infarct size was measured by triphenyltetrazolium chloride (TTC) staining. […] FIG. 42 is graph of infarct size after IR.

[4] = system: isolated hearts after ischemia-reperfusion; experiment: ischemia-reperfusion (IR), cardiac function (LVDP); assay type: in vivo, mice; settings: group mean
Method: At 20 minutes, ischemia was induced, and coronary flow was analyzed. At 50 minutes, reperfusion was initiated to restore blood flow. At 170 minutes, coronary flow and cardiac function was analyzed, and then the hearts were preserved, sectioned, and infarct size was measured by triphenyltetrazolium chloride (TTC) staining. […] Blue bars indicate LVDP at 20 minutes, and orange bars indicate LVDP at 170 minutes.

[5] = stability of CV-8972 in aqueous solution at different concentrations and pH; assay type: physicochemical
Method: The stability of CV-8972 was analyzed. Aqueous samples containing CV-8972 at different concentrations and pH were incubated for various periods and analyzed.
Form A of CV-8972 was analyzed for stability in aqueous solution. Aqueous samples containing CV-8972 at different concentrations and pH were incubated for various periods and analyzed.

COc1ccc(CN2CCN(CCOC(=O)c3cccnc3)CC2)c(OC)c1OC.Cl.Cl.Cl.O [Sample 289-MBA-27]
KF result (% of water) [1]: 3.93% | KF result (Sample after drying at 40° C. for 24 hours) [1]: 3.54%

COc1ccc(CN2CCN(CCOC(=O)c3cccnc3)CC2)c(OC)c1OC.Cl.Cl.Cl.O [Sample 289-MBA-31]
KF result (Sample after drying at 40° C. for 24 hours) [1]: 3.30%

COc1ccc(CN2CCN(CCOC(=O)c3cccnc3)CC2)c(OC)c1OC.Cl.Cl.Cl.O [Sample 289-MBA-30]
KF result (Sample after drying at 40° C. for 24 hours) [1]: 3.51%

COc1ccc(CN2CCN(CCOC(=O)c3cccnc3)CC2)c(OC)c1OC.Cl.Cl.Cl.O [Sample 289-MBA-29]
KF result (Sample after drying at 40° C. for 24 hours) [1]: 0.89%

COc1ccc(CN2CCN(CCOC(=O)c3cccnc3)CC2)c(OC)c1OC.Cl.Cl.Cl.O [Sample 289-MBA-25]
KF result (% of water) [1]: 3.46%

COc1ccc(CN2CCNCC2)c(OC)c1OC [TMZ, trimetazidine]
CF170/CF20 ([2]; group MEAN): 4.02E+01 ul/ml | CF170/CF20 ([2]; individual heart): 2.42E+01 ul/ml and 5.87E+01 ul/ml and 3.57E+01 ul/ml and 3.37E+01 ul/ml and 5.21E+01 ul/ml and 2.73E+01 ul/ml and 2.60E+01 ul/ml and 6.39E+01 ul/ml | IS/LV, Mean [3]: 56% | left ventricular developed pressure (LVDP), T20 Mean ([4]; Table 6, at 20 minutes): 55.86 | left ventricular developed pressure (LVDP), T170 Mean ([4]; Table 6, at 170 minutes): 48.91

COc1ccc(CN2CCN(CCOC(=O)c3cccnc3)CC2)c(OC)c1OC.Cl.Cl.Cl.O [Sample 289-MBA-26]
KF result (% of water) [1]: 4.00% | KF result (Sample after drying at 40° C. for 24 hours) [1]: 3.75%

COc1ccc(CN2CCN(CCOC(=O)c3cccnc3)CC2)c(OC)c1OC.Cl.Cl.Cl.O [Sample 276-MBA-172]
Retention Time 5.6 (purity of CV-8972) ([5]; 2 mg/mL pH 6, 0 hrs): 98.01 | Retention Time 5.6 (purity of CV-8972) ([5]; 2 mg/mL pH 7, 0 hrs): 97.53 | Retention Time 5.6 (purity of CV-8972) ([5]; 10 mg/mL pH 6, 0 hrs): 95.24 | Retention Time 5.6 (purity of CV-8972) ([5]; 10 mg/mL pH 7, 0 hrs): 92.85
